The values that follow come from patent US20260258039A1, “AROMATIC COMPOUND, METHOD FOR PREPARING SAME, AND USE THEREOF IN PREPARATION OF ESTROGEN RECEPTOR DEGRADER” (Hinova Pharmaceuticals Inc., priority 2022, published 2026).

pIC50: −log10 of the molar value. Like-named read-outs stand apart in the source and are kept apart here.

Holding throughout (assay type): cell-based
Experiment [1] concerns the target T1, ER (Homo sapiens, UniProt P03372).
T1 construct: T47D breast cancer cells were subcultured in cell culture medium; endogenous in cells; host or cells: T47D breast cancer cells
T1 sequence (P03372 1-595): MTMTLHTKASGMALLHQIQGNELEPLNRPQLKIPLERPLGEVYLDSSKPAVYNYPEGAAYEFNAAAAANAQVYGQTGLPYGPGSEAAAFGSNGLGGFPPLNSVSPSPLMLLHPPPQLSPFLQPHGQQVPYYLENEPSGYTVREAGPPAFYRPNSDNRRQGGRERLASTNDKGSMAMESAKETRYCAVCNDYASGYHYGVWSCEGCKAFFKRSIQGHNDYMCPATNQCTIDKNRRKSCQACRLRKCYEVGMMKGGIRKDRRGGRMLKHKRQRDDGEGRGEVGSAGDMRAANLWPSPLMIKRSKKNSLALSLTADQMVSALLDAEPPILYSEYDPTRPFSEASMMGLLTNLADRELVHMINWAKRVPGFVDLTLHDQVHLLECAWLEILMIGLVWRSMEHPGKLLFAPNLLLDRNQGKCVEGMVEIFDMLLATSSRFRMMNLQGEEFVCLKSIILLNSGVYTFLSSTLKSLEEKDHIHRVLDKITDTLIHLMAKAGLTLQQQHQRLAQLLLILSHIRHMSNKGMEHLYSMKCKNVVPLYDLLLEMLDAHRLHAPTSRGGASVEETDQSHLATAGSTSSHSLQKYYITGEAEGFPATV
Description: Degradation activities on ER (ELISA) in T47D breast cancer cells. The following applies: for DC50: concentration required to degrade 50% of the target protein. A digest of the protocol:
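T47D cells were seeded at 2.5×10^4/well, grown 3 days at 37 °C, 5% CO2, then exposed 24 h to compound at 100, 25, 6.25, 1.56, 0.39 and […] nM (final). ER protein was quantified by sandwich ELISA with HRP/TMB read at 450 nm, and DC50 and Dmax came from dose-response fits.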
Background: In an ELISA, binding on a coated surface is turned into a signal by an enzyme label.

Experiment [2] relates to MCF-7 breast cancer cells. Briefly: Inhibition of proliferation of MCF-7 breast cancer cells (agarose culture, CellTiter-Glo 3D). As for the experimental part:
After 1.6% agarose and 0.7% agarose were sterilized at high temperature, they were cooled to around 50° C., and placed in a 42° C. water bath for later use. MCF-7 breast cancer cells were subcultured in complete cell culture medium, and cells in good growth condition were digested and counted for future use. 50 µL of 1.6% agarose mixed with 2× culture medium at a ratio of 1:1 was spread into the bottom of 96-well plate, and allowed to cool and solidify. 0.7% agarose was mixed with diluted cell suspension in a ratio of 1:1, and then 50 µL of the mixture of gel and cells was added to each well, with 2000 cells for each well; the mixture was allowed to cool and solidify at room temperature. 50 μL of culture medium was added to the plate containing cells, and the plate was placed in a 37° C., 5% CO2 incubator and cultured for 24 h. The drug was prepared into 10 mM stock solution with dimethyl sulfoxide (DMSO). The stock solution was diluted in a ratio of 1:3, to obtain 9 concentration gradients. Then, each concentration of compound solution was further diluted with culture medium in 1:250 (to ensure a DMSO concentration of 0.1% in the culture system). Two replicate wells was set for each concentration. 50 μL of the diluted compound solution was added to the cell culture wells (with final concentrations of 10 μM, 3.3 μM, 1.1 μM, 0.37 μM . . . ). The plate was gently shaken for mixing. Additionally, 3 negative control wells only containing cells and 3 blank control wells only containing culture medium were set up (each of the 6 wells was added with 50 μL of DMSO diluted with culture medium in a ration of 1:250). After 15 days of cultivation, the cell plates and CellTiter-Glo 3D Cell Viability were taken out and equilibrated to room temperature in advance. 80 μL of culture medium were aspirated and discarded from the cell plate, and 120 µL of CellTiter-Glo 3D Cell Viability solution was added to each well. The plates were centrifuged at 1200 rpm/min for 5 min, and then placed in the dark and kept for 25 min. The […] were measured using a multi-function microplate reader. The data were analyzed using the Dose-response-inhibition equation in GraphPad Prism8 software, and the IC50 values were obtained, as shown in Table 3.
(ATP-based viability assays read luminescence as a measure of living cells.)

Experiment [3] addresses T1, ER. Briefly: Degradation activities on ER (Western blotting) in T47D breast cancer cells. The following applies: compound concentration 1 nM, 24 h, Western blot. On the procedure: T47D breast cancer cells were subcultured in cell culture medium, and the cells in good growth condition were seeded into 6-well plate at 2 mL/well, with 2.5×10^5 cells per well. The cells were incubated overnight in a 37° C. incubator under 5% CO2. The drug was prepared into 10 mM stock solution with dimethyl sulfoxide (DMSO). Prior to use, the stock solution was diluted with DMSO in a ratio of 1:3. […] of the diluted compound was added to the cell culture wells (to ensure a DMSO concentration of 0.1% in the culture system), and each concentration was repeated twice. The plate were gently shaken to mix. Additionally, the negative control wells (containing equal amount of DMSO) and the positive control wells were set up. After 24 hours of culture, the cells were lysed with RIPA cell lysis buffer to extract proteins, and the protein concentration was measured using a BCA kit. The protein loading buffer (5×) was added, and the plate was heated at 100° C. for 5 min. Then, the sample was stored at −20° C. […] of protein collected from each well was loaded onto a polyacrylamide gel for electrophoresis. The protein is transferred from the polyacrylamide gel to a PVDF membrane, blocked with 5% skim milk at room temperature for 1 h, and incubated overnight at 4° C. with primary antibodies Anti-ERα rabbit mAb (CST, Cat #: 8644S) and Anti-GAPDH rabbit mAb (CST, Cat #: 2118L). The membrane was washed three times with TBST solution, with 10 min for each time. The secondary antibody (horseradish peroxidase-labeled goat anti-rabbit IgG) was incubated at room temperature for 2 h, and then the membrane was washed three times with TBST solution, with 10 min for each time. Finally, ECL chromogenic solution was added for color development, and an automatic chemiluminescence instrument was used to take pictures. Images were collected and analyzed.
The degradation activities of the compounds according to the present invention towards ER, as tested by western blotting, are presented in Table 2
For orientation: Immunoblotting shows a protein as a band on a membrane.

The mark [4] stands for this setting: Homo sapiens, MCF7, 360 h, MCF-7 cells, 15 days of cultivation, read-out: IC50.
Setting [5] is: T47D cells, 24 h, ELISA, maximum percentage of target protein degraded, read-out: Dmax.

As a reminder, the DC50 is the midpoint of the concentration-degradation curve. The term pIC50 denotes the IC50 on a negative log10 scale, so that one unit is a factor of ten. As for `O=C1CCC(N2Cc3cc(N4CCC(N5CC6(CCN(c7ccc([C@@H]8c9ccc(O)cc9CC[C@@H]8c8ccccc8F)cc7)CC6)C5)CC4)ccc3C2=O)C(=O)N1` (stereo partly drawn) [Example 22, 3-(5-(4-(7-(4-((1R,2S)-2-(2-fluorophenyl)-6-hydroxyl-1,2,3,4-tetrahydronaphthalen-1-yl)phenyl)-2,7-diazaspiro[3.5]nonane-2-yl)piperidin-1-yl)-1-oxoisoinodolin-2-yl)piperidin-2,6-dione], the DC50 in experiment [1] (T47D cells, 24 h, ELISA) was less than 10 nM. Besides, the pIC50 in experiment [2] (setting [4]) was greater than 8.00.

In the case of `O=C1CCC(N2Cc3cc(N4CC5(CCN(CC6CCN(c7c(F)cc([C@@H]8c9ccc(O)cc9OC[C@@H]8c8c(F)cccc8F)cc7F)CC6)CC5)C4)ccc3C2=O)C(=O)N1` (stereo partly drawn) [Example 40], the half-maximal degradation concentration (DC50) in experiment [1] (T47D cells, 24 h, ELISA) is less than 10 nM. In addition, the pIC50 in experiment [2] (setting [4]) is greater than 8.00.

For orientation: Dmax means the largest share of the target that was removed. In experiment [1] (T47D cells, 24 h, ELISA), `O=C1CCC(N2Cc3cc(N4CC5(CCN(CC6CCN(c7c(F)cc(C8=C(c9c(F)cccc9F)COc9cc(O)ccc98)cc7F)CC6)CC5)C4)ccc3C2=O)C(=O)N1` (stereo not drawn) [Example 42] gave a DC50 of less than 10 nM. Besides, the maximal degradation (Dmax) in experiment [1] (setting [5]) was 50 to 75%. The pIC50 in experiment [2] (setting [4]) is 7.30 to 7.96.

For `O=C1CC[C@@H](N2Cc3cc(N4CC5(CCN(CC6CCN(c7c(F)cc([C@@H]8c9ccc(O)cc9OC[C@@H]8c8c(F)cccc8F)cc7F)CC6)CC5)C4)ccc3C2=O)C(=O)N1` [Example 44], the DC50 in experiment [1] (T47D cells, 24 h, ELISA) was greater than 100 nM. The greatest degradation seen (Dmax) in experiment [1] (setting [5]) was less than 50%. Also, the pIC50 in experiment [2] (setting [4]) is less than 7.30.

In turn, `O=C1CC[C@H](N2Cc3cc(N4CC5(CCN(CC6CCN(c7c(F)cc([C@@H]8c9ccc(O)cc9OC[C@@H]8c8c(F)cccc8F)cc7F)CC6)CC5)C4)ccc3C2=O)C(=O)N1` [Example 45] had a DC50 in experiment [1] (T47D cells, 24 h, ELISA) of less than 10 nM. Further, the Dmax in experiment [1] (setting [5]) is greater than 75%. In addition, in experiment [2] (setting [4]), the negative-log IC50 (pIC50) is greater than 8.00.

For the molecule `O=C1CCC(N2Cc3cc(N4CC5(CCN(CC6CCN(c7c(F)cc([C@@H]8c9ccc(O)cc9OC[C@@H]8c8cccc(F)c8F)cc7F)CC6)CC5)C4)ccc3C2=O)C(=O)N1` (stereo partly drawn) [Example 49, 3-(5-(7-((1-(4-((3S, 4R)-3-(2,3-difluorophenyl)-7-hydroxychroman-4-yl)-2,6-difluorophenyl)piperidin-4-yl)methyl)-2,7-diazaspiro[3.5]nonane-2-yl)-1-oxoisoinodolin-2-yl)piperidin-2,6-one], in experiment [1] (T47D cells, 24 h, ELISA), the DC50 is less than 10 nM. Moreover, the negative logarithm of the IC50 (pIC50) in experiment [2] (setting [4]) was greater than 8.00.

With `O=C1CCC(N2Cc3cc(N4CC5(CCN(CC6CCN(c7c(F)cc([C@@H]8c9ccc(O)cc9OC[C@@H]8c8ccccc8F)cc7F)CC6)CC5)C4)ccc3C2=O)C(=O)N1` (stereo partly drawn) [Example 50, 3-(5-(7-((1-(4-((3S,4R)-3-(2-fluorophenyl)-7-hydroxychroman-4-yl)-2,6-difluorophenyl)piperidin-4-yl)methyl)-2,7-diazaspiro[3.5]nonane-2-yl)-1-oxoisoinodolin-2-yl)piperidin-2,6-one], the DC50 in experiment [1] (T47D cells, 24 h, ELISA) is less than 10 nM. In addition, the pIC50 in experiment [2] (MCF-7 cells, 15 days of cultivation, read-out: IC50) is greater than 8.00.

On to `O=C1CCC(N2Cc3cc(N4CC5(CN(CC6CCN(c7ccc([C@H]8c9ccc(O)cc9OC[C@H]8c8ccccc8)cc7)CC6)C5)C4)ccc3C2=O)C(=O)N1` (stereo partly drawn) [Example 56, 3-(5-(6-((1-(4-((3R,4S)-7-hydroxyl-3-phenyl-chroman-4-yl)phenyl)piperidin-4-yl)methyl)-2,6-diazaspiro[3.3]heptane-2-yl)-1-oxoisoinodolin-2-yl)piperidin-2,6-one], for which the “Percentage reduction of ER” value in experiment [3] amounted to 59%.

`O=C1CCC(N2Cc3cc(N4CC5(CCN(CC6CCN(c7ccc([C@@H]8c9ccc(O)cc9OC[C@@H]8c8cccc(F)c8)cc7)CC6)CC5)C4)ccc3C2=O)C(=O)N1` (stereo partly drawn) [Example 60, 3-(5-(7-((1-(4-((3,4-cis)-3-(3-fluorophenyl)-7-hydroxyl-chroman-4-yl)phenyl)piperidin-4-yl)methyl)-2,7-diazaspiro[3.5]nonane-2-yl)-1-oxoisoindol-2-yl)piperidin-2,6-dione]: in experiment [1] (T47D), the Dmax lay in the range of 50 to 75%. The DC50 in experiment [1] (T47D cells, 24 h, ELISA) is less than 10 nM. This molecule had a pIC50 in experiment [2] (Homo sapiens, MCF7, 360 h) greater than 8.00.

Take `O=C1CC[C@@H](N2Cc3cc(N4CC5(CCN(CC6CCN(c7ccc([C@@H]8c9ccc(O)cc9OC[C@@H]8c8c(F)cccc8F)cc7F)CC6)CC5)C4)ccc3C2=O)C(=O)N1` [Example 74, (R)-3-(5-(7-((1-(4-((3S,4R)-3-(2,6-difluorophenyl)-7-hydroxychroman-4-yl)-2-fluorophenyl)piperidin-4-yl)methyl)-2,7-diazaspiro[3.5]nonane-2-yl)-1-oxoisoinodolin-2-yl)piperidin-2,6-dione]: in experiment [1] (T47D cells, 24 h, ELISA), the DC50 is greater than 100 nM. Moreover, the Dmax in experiment [1] (setting [5]) was less than 50%. Moreover, in experiment [2] (setting [4]), the pIC50 is less than 7.30.

In experiment [1] (T47D cells, 24 h, ELISA), `O=C1CC[C@H](N2Cc3cc(N4CC5(CCN(CC6CCN(c7ccc([C@@H]8c9ccc(O)cc9OC[C@@H]8c8c(F)cccc8F)cc7F)CC6)CC5)C4)ccc3C2=O)C(=O)N1` [Example 75, (S)-3-(5-(7-((1-(4-((3S,4R)-3-(2,6-difluorophenyl)-7-hydroxychroman-4-yl)-2-fluorophenyl)piperidin-4-yl)methyl)-2,7-diazaspiro[3.5]nonane-2-yl)-1-oxoisoinodolin-2-yl)piperidin-2,6-dione] came in with a DC50 of less than 10 nM. Also, the maximal degradation (Dmax) in experiment [1] (setting [5]) is greater than 75%. The pIC50 in experiment [2] (setting [4]) was greater than 8.00.

In experiment [1] (T47D cells, 24 h, ELISA), `O=C1CCC(N2Cc3cc(N4CC5(CCN(CC6CCN(c7ccc(C8=C(c9c(F)cccc9F)COc9cc(O)ccc98)cc7F)CC6)CC5)C4)ccc3C2=O)C(=O)N1` (stereo not drawn) [Example 76, 3-(5-(7-((1-(4-(3-(2,6-difluorophenyl)-7-hydroxyl-2H-chromene-4-yl)-2-fluorophenyl)piperidin-4-yl)methyl)-2,7-diazaspiro[3.5]nonane-2-yl)-1-oxoisoinodolin-2-yl)piperidin-6-dione] yielded a DC50 of less than 10 nM. The maximal degradation (Dmax) in experiment [1] (setting [5]) is greater than 75%. The pIC50 in experiment [2] (setting [4]) is greater than 8.00.
